Assay results reported in US9226942B2, “Expanding hematopoietic stem cells” (priority 2010, dated 2016).

Assays:
VentX = assay: Quantitative (RT-)PCR of VentX expression in CD34+ cells; assay type: cell-based, human
Text: Bone marrow (BW) samples were obtained from discarded femoral head tissue after hip replacement surgery from Brigham and Women's Hospital, with institutional IRB approval. After Ficoll separation of mononuclear cells, CD34+ cells were enriched using magnetically activated cell sorting CD34^+ progenitor kit (Miltenyi Biotec). The purity of the BW CD34+ cells was over 95%, as assessed by flow cytometry as described in Rizo et al., 2008.
Total RNA was isolated by the TRIzol method, and same amount of RNA was used for first-strand cDNA synthesis with SuperSript First-Strand Synthesis System (Invitrogen) according to the manufacturer's protocol. To determine VentX mRNA level, the cDNA was then used for real-time PCR of VentX with primers: 5′-CCGTCAGCATCAAGGAGG-3′ (SEQ ID NO: 19) and 5′-CTGGACCTCTGAGAGCTGC-3′ (SEQ ID NO: 20). Real-time PCR was also performed with SYBR Green on a LightCycler® 480 system (480 Real-Time PCR System; Roche).
Briefly, the lentiviral vector pHAGE-CMV-eGFPW that expresses a shRNA targeting VentX (pHAGE-shVentX) was used for the transduction of bone marrow CD34+ cells. This lentiviral vector contains an internal ribosome entry site (IRES) that allows simultaneous expression of GFP to monitor transduction rate or for cell sorting. The corresponding DNA sequence of VentX shRNA is SEQ ID NO: 12 or 14. […]

BW CD34+ cells = assay: Cytokine supplemented stroma-free liquid culture of CD34+ cells (cell counts, FACS); assay type: cell-based, human
CD34+ cells = assay: In vitro colony-forming cell (CFC) assay; assay type: cell-based, human
Protocol: Assays for in vitro colony-forming cells (CFCs) were performed by plating sorted GFP positive CD34+ cells (1×10^4 per dish) in triplicates in complete methylcellulose medium (Methocult G F, H4434; Stem Cell Technologies), which contains a mixture of recombinant human cytokines (SCF, IL-3, GM-CSF, and erythropoietin). Colonies were counted after 14 days of incubation at 37° C. and classified according to standard criteria.
Human BW CD34+ cells were obtained as described in Example 1. These cells were transfected with pCS2-GFP or pCS2-GFPVentX plasmid using the Human CD34+ cell Nucleofector Kit (Lonza) as described above. GFP-positive cells were sorted by FACSAria high-speed sorter after transfected for 24 hours.

human CD34+ cells = assay: SR1-mediated expansion of human CD34+ cells; assay type: cell-based
[1] = colonies counted after 14 days, vs GFP control

Row | Compound | knockdown of VentX in CD34+ cells (VentX; quantitative PCR / RT-PCR) [%] | expansion of HSCs in comparison with siGFP-transfected cells (BW CD34+ cells; 2 weeks culture) [fold] | percentage of CD34+ cells (BW CD34+ cells; siRNA-transfected cells) | increase in total number of progeny cells (CD34+ cells; based on the CFC assay) [fold] | increase in formation of BFU-E/CFU-E colonies (CD34+ cells; [1]) [fold] | increase in formation of CFU-GM colonies (CD34+ cells; [1]) [fold] | expansion of CD34+ cells (human CD34+ cells) | expression of VentX in the CD34+ cells (VentX)
1 | siVentX: short oligonucleotides targeting VentX, siRNA SEQ ID NO: 5 (UUCAGAAUCGCCGCAUGAAACACAAACGG) (listed as RNA, chemistry not given here) | ~70 | ~2 | an increase | ~2 | ~2 | ~2 | – | –
2 | CC(C)n1cnc2c(NCCc3ccc(O)cc3)nc(-c3csc4ccccc34)nc21 [SR1, StemRegenin 1, reference compound] | – | – | – | – | – | – | increased | inhibited
